# Reference: patent publication US20080112933A1 (priority 2004, published 2008)
# Columns and labels:
# [1] = system: hematopoietic progenitor cells; conditions: mouse, in vivo
# [2] = system: hematopoietic progenitor cells; conditions: mouse, in vivo; remark: listed apart in the source
# [3] = target: Gαs (Mus musculus, UniProt P63094); test: Gαs activity measured by cAMP production in bone marrow mononuclear cells; conditions: bone marrow mononuclear cells treated with the agent; FIG. 3
# [4] = system: bone marrow MNCs; test: Long-term culture-initiating cell (LTC-IC) assay of treated bone marrow MNCs; conditions: treated bone marrow mononuclear cells; FIG. 4; taken as showing no myelotoxicity
# [5] = system: bone marrow MNCs; test: Competitive repopulation assay with treated bone marrow MNCs; assay type: in vivo, mouse; conditions: treated CD45.1 BM MNCs injected with equal number of CD45.2 BM MNCs into lethally irradiated CD45.2 mice; flow cytometry eight weeks after injection; FIG. 8
# Experimental: In these experiments CD45.1 cells were either treated with suramin or untreated. They were then injected with an equal number of CD45.2 whole BM MNCs into lethally irradiated CD45.2 mice. Eight weeks following injection the contribution to bone marrow hematopoiesis of the untreated or treated cells was analyzed by flow cytometry.
# [6] = system: bone marrow mononuclear cells; test: CFU-C assay of treated bone marrow mononuclear cells; conditions: taken as showing no myelotoxicity
# Gαs, sequence (P63094 whole entry): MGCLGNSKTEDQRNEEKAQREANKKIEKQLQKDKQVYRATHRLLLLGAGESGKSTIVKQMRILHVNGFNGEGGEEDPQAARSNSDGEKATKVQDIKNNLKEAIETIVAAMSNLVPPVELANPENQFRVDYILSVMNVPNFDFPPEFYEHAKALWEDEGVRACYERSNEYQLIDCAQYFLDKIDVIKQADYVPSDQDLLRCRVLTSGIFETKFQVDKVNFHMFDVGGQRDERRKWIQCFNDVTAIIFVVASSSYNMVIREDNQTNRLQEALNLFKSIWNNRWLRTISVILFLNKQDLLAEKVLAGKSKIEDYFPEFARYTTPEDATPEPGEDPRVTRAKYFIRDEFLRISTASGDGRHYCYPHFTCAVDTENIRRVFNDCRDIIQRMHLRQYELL
Compound,increase in the number of cells homing to the bone marrow [1] [%],engraftment potential: contribution in competitive transplants [2],cAMP production (indicative of Gαs signaling) [3],ability of the cells to perform in LTC-IC assay [4],ability to engraft and establish hematopoiesis in the bone marrow [5],ability of the cells to perform in CFU-C assay [6]
cholera toxin,~75,enhanced contribution in competitive transplants,,,,
Cc1ccc(C(=O)Nc2ccc(S(=O)(=O)O)c3cc(S(=O)(=O)O)cc(S(=O)(=O)O)c23)cc1NC(=O)c1cccc(NC(=O)Nc2cccc(C(=O)Nc3cc(C(=O)Nc4ccc(S(=O)(=O)O)c5cc(S(=O)(=O)O)cc(S(=O)(=O)O)c45)ccc3C)c2)c1 [suramin],,,reduction in the cAMP production,did not result in any impairment,reduction in their ability to engraft and establish hematopoiesis in the bone marrow,did not result in any impairment
